The results in this text go back to patent US12495798B2, “Nicotinamide compound and herbicidal composition comprising compound” (KOREA RESEARCH INSTITUTE OF CHEMICAL TECHNOLOGY, priority 2019, dated 2025).

Holding throughout (type): in vivo
Assay [1] concerns sorghum. Put plainly: Herbicidal activity test against upland field weeds (foliar treatment test). Further details: key to Foliar treatment herbicidal activity, Sorghum: 0 (no control); 100 (complete control). The conditions noted are these: 50 g ai/ha, scale 0-100. In short, it runs like this: (§1)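 Visual 0–100 control ratings relative to untreated plants, taken 14 (or 21) days after spraying foliage at 50 or 75 g a.i./ha. Spray solution: 50% acetone with 0.1% Tween-20; plants kept in greenhouse at 30±5 °C, 14 h light/10 h dark.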

Assay [2] concerns barnyard grass. Described as above. The conditions noted are these: Echinochloa crus-galli, 50 g ai/ha, scale 0-100. In short, it runs like this: as §1
The test system of assay [3] is quack grass. Described as above. Details: key to Foliar treatment herbicidal activity, quack grass: 0 (no control); 100 (complete control). The conditions noted are these: 50 g ai/ha, scale 0-100. In short, it runs like this:
as §1

Assay [4] relates to crabgrass. The assay is described as above. The conditions noted are these: Digitaria sanguinalis, 50 g ai/ha, scale 0-100. In short, it runs like this:
as §1

Assay [5] deals with fall panicum. Described as above. Details: key to Foliar treatment herbicidal activity, Fall panicum: 0 (no control); 100 (complete control). The following applies: 50 g ai/ha, scale 0-100. In short, it runs like this: as §1
The test system of assay [6] is black nightshade. The description is as above. The following applies: Solanum nigrum, 50 g ai/ha, scale 0-100. In short, it runs like this:
as §1

For assay [7], the system named is indian jointvetch. The assay is described as above. The conditions noted are these: 50 g ai/ha, scale 0-100. In short, it runs like this: as §1
Assay [8] relates to velvetleaf. The description is as above. The following applies: Abutilon theophrasti, 50 g ai/ha, scale 0-100, read-out: Foliar treatment herbicidal activity, velvet leaf. In short, it runs like this: as §1
For assay [9], the system named is cocklebur. The description is as above. The conditions noted are these: Xanthium strumarium, 50 g ai/ha, scale 0-100. In short, it runs like this:
as §1

For assay [10], the system named is bindweed. The assay is described as above. The conditions noted are these: 50 g ai/ha, scale 0-100. In short, it runs like this: as §1
Assay [11] has as its system sorghum. The assay can be described thus: Herbicidal activity test against upland field weeds (soil treatment test). Details: key to Soil treatment herbicidal activity, Sorghum: 0 (no control); 100 (complete control). The conditions noted are these: 50 g ai/ha, scale 0 (no control) to 100 (complete control). Summed up:
(§2)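 Weed control scored visually on a 0 (none) to 100 (complete) scale versus untreated pots at 14 or 21 days in greenhouse (30±5 °C, 14 h light). Test compounds, 50 or 75 g a.i./ha in 50% acetone/0.1% Tween-20, hand-sprayed onto soil one day post-sowing.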

Assay [12] deals with barnyard grass. The assay is described as above. The following applies: Echinochloa crus-galli, 50 g ai/ha, scale 0 (no control) to 100 (complete control). Summed up:
as §2

Assay [13] relates to quack grass. The description is as above. Further details: key to Soil treatment herbicidal activity, quack grass: 0 (no control); 100 (complete control). The following applies: 50 g ai/ha, scale 0 (no control) to 100 (complete control). In short, it runs like this: as §2
The subject of assay [14] is crabgrass. The assay is described as above. The conditions noted are these: Digitaria sanguinalis, 50 g ai/ha, scale 0 (no control) to 100 (complete control). In short, it runs like this: as §2
The test system of assay [15] is fall panicum. Described as above. The conditions noted are these: Panicum dichotomiflorum, 50 g ai/ha, scale 0 (no control) to 100 (complete control). In short, it runs like this: as §2
For assay [16], the system named is black nightshade. The description is as above. The conditions noted are these: 50 g ai/ha, scale 0 (no control) to 100 (complete control). Details: key to Soil treatment herbicidal activity, black nightshade: 0 (no control); 100 (complete control). In short, it runs like this: as §2
Assay [17] concerns indian jointvetch. Described as above. The conditions noted are these: 50 g ai/ha, scale 0 (no control) to 100 (complete control). In short, it runs like this: as §2
Assay [18] deals with velvetleaf. Described as above. The following applies: 50 g ai/ha, scale 0 (no control) to 100 (complete control). Further details: key to Soil treatment herbicidal activity, velvet leaf: 0 (no control); 100 (complete control). Summed up:
as §2

The subject of assay [19] is cocklebur. Described as above. Details: key to Soil treatment herbicidal activity, Cocklebur: 0 (no control); 100 (complete control). The following applies: 50 g ai/ha, scale 0 (no control) to 100 (complete control). In short, it runs like this:
as §2

Assay [20] concerns bindweed. The assay is described as above. Details: key to Soil treatment herbicidal activity, Bindweed: 0 (no control); 100 (complete control). The following applies: 50 g ai/ha, scale 0 (no control) to 100 (complete control). Summed up: as §2

For the compound `C#CCN(Cc1nnn(C)n1)c1nc(C(F)(F)F)ccc1C(=O)Nc1nnnn1C` [Compound No. 2-28, N-(1-methyl-1H-tetrazol-5-yl)-2-(((2-methyl-2H-tetrazol-5-yl)methyl)(prop-2-yn-1-yl)amino)-6-(trifluoromethyl)nicotinamide], the “Foliar treatment herbicidal activity, Sorghum” value in the assay on sorghum [1] is 0. The pest or weed control at 50 g/ha with barnyard grass [2] came out at 70%; in the assay on crabgrass [4], 30%; in the assay on black nightshade [6], 90%; with indian jointvetch [7], 40%; in the assay on velvetleaf [8], 40%; in the assay on cocklebur [9] it was 80%. Also, the pest or weed control at 50 g/ha in the assay on bindweed [10] was found to be 40%; in the assay on barnyard grass [12] it was 70%; in the assay with crabgrass [14], 90%; in the assay on fall panicum [15], 70%; in the assay with indian jointvetch [17] it was 70%. Besides, in the assay on quack grass [3], the “Foliar treatment herbicidal activity, quack grass” value is recorded as 0. In the assay on fall panicum [5], the “Foliar treatment herbicidal activity, Fall panicum” value worked out at 0. In addition, the “Soil treatment herbicidal activity, Sorghum” value in the assay with sorghum [11] was 0. The “Soil treatment herbicidal activity, quack grass” value in the assay on quack grass [13] is recorded as 0. Also, the “Soil treatment herbicidal activity, black nightshade” value with black nightshade [16] was 100. For the same compound, the “Soil treatment herbicidal activity, velvet leaf” value with velvetleaf [18] was determined as 100. The “Soil treatment herbicidal activity, Cocklebur” value in the assay on cocklebur [19] worked out at 0. In the assay with bindweed [20], the “Soil treatment herbicidal activity, Bindweed” value was found to be 0.
